Laboratory results taken from ChEMBL document CHEMBL5729517, “BTK inhibitor compounds” (2023).

Key:
[1] = target: Tyrosine-protein kinase BTK (Homo sapiens, UniProt Q06187); assay: BTK and EGFR in Vitro Assay: The BTK and EGFR biochemical assays utilize LANTHASCREEN® Eu Kinase Binding Assays from Thermo Fisher Scientific, measuring the binding of the kinase with a […] tracer. The assay buffer consists of 50 mM HEPES pH 7.5, 0.01% BRU™-35, 10 mM MgCl2, 1 mM EGTA, and 1 mM DTT. The test compounds are diluted and added to the assay plate with a Labcyte ECHO® 555 liquid handler. The compounds are tested in 10 point dose response curves (100 μM-0.005 μM) with a maximum DMSO concentration of 1%. The assays are performed in 20 μL in low-volume 384-well white proxiplates. For the BTK assay, the concentration of full-length His-labeled BTK in the assay is 5 nM, the Eu-anti-His antibody is 2 nM, and the kinase tracer 236 is 60 nM. For the EGFR assay, the concentration of truncated (amino acids 668-1210) GST-labeled EGFR is 5 nM, the Eu-anti-GST antibody is 2 nM, and the kinase tracer 199 is 10 nM. The components of the assay (compound, enzyme/antibody, tracer) are assembled and incubated for 30 min prior to being read on a Perkin-Elmer EnVision with excitation at 340 nm, tracer emission at 665 nm, and antibody emission at 615 nm. The signal ratio is converted to percent inhibition using the following equation: % Inhibition=100−[(Test Compound−Median Minimum)/(Median Maximum−Median Minimum)×100].
[2] = target: Epidermal growth factor receptor (Homo sapiens, UniProt P00533); assay: BTK and EGFR in Vitro Assay: The BTK and EGFR biochemical assays utilize LANTHASCREEN® Eu Kinase Binding Assays from Thermo Fisher Scientific, measuring the binding of the kinase with a fluorinated tracer. The assay buffer consists of 50 mM HEPES pH 7.5, 0.01% BRU™-35, 10 mM MgCl2, 1 mM EGTA, and 1 mM DTT. […] The compounds are tested in 10 point dose response curves (100 μM-0.005 μM) with a maximum DMSO concentration of 1%. The assays are performed in 20 μL in low-volume 384-well white proxiplates. […] The signal ratio is converted to percent inhibition using the following equation: % Inhibition=100−[(Test Compound−Median Minimum)/(Median Maximum−Median Minimum)×100].
Epidermal growth factor receptor, sequence (P00533 whole entry): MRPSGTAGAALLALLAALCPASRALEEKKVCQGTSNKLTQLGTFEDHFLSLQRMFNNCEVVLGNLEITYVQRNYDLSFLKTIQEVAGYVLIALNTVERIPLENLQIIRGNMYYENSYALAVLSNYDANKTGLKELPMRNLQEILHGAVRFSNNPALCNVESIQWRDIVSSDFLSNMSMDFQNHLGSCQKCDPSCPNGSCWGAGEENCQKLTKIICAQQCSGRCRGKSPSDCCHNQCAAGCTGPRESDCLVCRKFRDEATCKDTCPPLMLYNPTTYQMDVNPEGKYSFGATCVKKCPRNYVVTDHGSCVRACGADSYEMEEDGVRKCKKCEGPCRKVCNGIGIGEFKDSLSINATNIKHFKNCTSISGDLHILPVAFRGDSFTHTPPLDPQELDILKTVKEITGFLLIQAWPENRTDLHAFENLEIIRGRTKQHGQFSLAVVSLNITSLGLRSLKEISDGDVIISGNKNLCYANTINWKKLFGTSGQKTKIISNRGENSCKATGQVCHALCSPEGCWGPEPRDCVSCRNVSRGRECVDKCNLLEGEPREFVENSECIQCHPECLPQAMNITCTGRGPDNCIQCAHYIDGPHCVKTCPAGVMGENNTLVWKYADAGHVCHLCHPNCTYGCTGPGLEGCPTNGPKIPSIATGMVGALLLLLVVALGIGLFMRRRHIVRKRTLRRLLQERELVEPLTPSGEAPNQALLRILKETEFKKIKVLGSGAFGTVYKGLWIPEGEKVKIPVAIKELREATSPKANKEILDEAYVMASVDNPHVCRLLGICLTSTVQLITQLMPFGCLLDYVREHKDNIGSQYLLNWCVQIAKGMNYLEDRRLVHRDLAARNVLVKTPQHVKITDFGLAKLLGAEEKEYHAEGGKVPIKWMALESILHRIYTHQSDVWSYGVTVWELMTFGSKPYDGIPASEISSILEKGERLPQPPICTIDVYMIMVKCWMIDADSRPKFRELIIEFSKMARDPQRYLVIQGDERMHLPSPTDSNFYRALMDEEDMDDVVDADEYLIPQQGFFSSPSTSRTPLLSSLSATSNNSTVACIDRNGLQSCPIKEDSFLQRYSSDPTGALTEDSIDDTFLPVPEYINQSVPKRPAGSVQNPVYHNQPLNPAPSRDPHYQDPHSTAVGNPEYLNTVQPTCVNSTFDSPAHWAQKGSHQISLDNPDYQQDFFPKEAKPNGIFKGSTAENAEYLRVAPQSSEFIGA

Tyrosine-protein kinase BTK, sequence (Q06187 whole entry, the tested form may be a part): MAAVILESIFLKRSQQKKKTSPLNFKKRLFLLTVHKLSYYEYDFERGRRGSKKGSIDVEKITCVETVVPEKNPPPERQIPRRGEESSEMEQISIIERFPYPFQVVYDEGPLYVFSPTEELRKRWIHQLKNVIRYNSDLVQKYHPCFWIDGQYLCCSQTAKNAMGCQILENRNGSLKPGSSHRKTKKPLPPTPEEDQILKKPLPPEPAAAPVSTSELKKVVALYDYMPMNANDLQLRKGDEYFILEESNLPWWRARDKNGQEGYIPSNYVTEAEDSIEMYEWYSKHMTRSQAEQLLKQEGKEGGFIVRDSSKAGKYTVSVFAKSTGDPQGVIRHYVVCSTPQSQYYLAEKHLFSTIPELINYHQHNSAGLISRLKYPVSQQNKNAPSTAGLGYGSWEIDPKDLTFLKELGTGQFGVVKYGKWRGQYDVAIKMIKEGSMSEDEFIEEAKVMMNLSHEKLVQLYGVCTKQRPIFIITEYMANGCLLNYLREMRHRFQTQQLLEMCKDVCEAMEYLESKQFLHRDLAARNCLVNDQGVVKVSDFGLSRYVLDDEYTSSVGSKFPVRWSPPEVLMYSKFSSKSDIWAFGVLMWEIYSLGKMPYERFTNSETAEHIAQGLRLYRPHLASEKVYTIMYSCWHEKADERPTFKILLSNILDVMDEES

| Structure (SMILES) | IC50 [1] [µM] | IC50 [2] [µM] |
| --- | --- | --- |
| C=CC(=O)N1CC[C@H](Nc2cncc(-c3cnc(Nc4cccc(OC(F)F)c4)nc3)c2)C1 | 0.00608 | 8.65 |
| C=CC(=O)N1CC[C@H](Nc2cncc(-c3cnc(Oc4cccc(OC(F)F)c4)nc3)c2)C1 | 0.0555 | 28.5 |
| C=CC(=O)N1CC(Nc2cncc(-c3cnc(Oc4cccc(C#N)c4)nc3)c2)C1 | 0.0758 | 6.52 |
| C=CC(=O)N1CC[C@H](Nc2cncc(-c3cnc(Nc4cccc(C)n4)nc3)c2)C1 | 0.0329 | 16.1 |
